US7666850B2, “Drug screens based on the newly found role of dystroglycan proteolysis and restoration of dystroglycan function thereof” (The Regents of the University of California, priority 1999, dated 2010)
Entries after “also recorded” stand apart in the source; their conditions may differ.

Legend:
HMT-3522-T4 (T4) cells = test: 3-dimensional basement membrane (3D-BM) assay, HMT-3522-T4 cells; assay type: cell-based
Description: Dystroglycan function reduces the growth potential and induces polarity in normal mammary epithelial cells exposed to basement membrane proteins. […] Because dystroglycan function is lost in part by proteolytic shedding, inhibition of dystroglycan shedding can restore or enhance dystroglycan function. Therefore, restoration of dystroglycan function can be used as an assay for inhibitors of the metaloproteinase(s) cleaving and shedding α-dystroglycan. […] The cells were counted and 100,000 cells were resuspended in 0.3-0.5 mls of growth factor-reduced Matrigel (Collaborative Research). This mixture was placed into a 1.5 cm diameter cell culture well, and incubated at 37 degrees Celsius for 30 minutes to induce gelling of the Matrigel. Subsequently, the gelled cell-BM protein mixture was overlayed with growth medium with or without the addition of protease inhibitors or control substances. The cells were cultured at 37 degrees Celsius in a cell culture incubator at 5% carbon dioxide. The growth medium and additives were changed every two days.
The assay was allowed to proceed from 6 to 10 days. […] Measures of polarity and reduced growth potential can be easily optimized by methods existing in the art.

MDA-MD-231 cells = test: 3-dimensional basement membrane (3D-BM) assay, MDA-MD-231 cells; assay type: cell-based
Description: Dystroglycan function reduces the growth potential and induces polarity in normal mammary epithelial cells exposed to basement membrane proteins. […] Because dystroglycan function is lost in part by proteolytic shedding, inhibition of dystroglycan shedding can restore or enhance dystroglycan function. Therefore, restoration of dystroglycan function can be used as an assay for inhibitors of the metaloproteinase(s) cleaving and shedding α-dystroglycan. Carcinoma cell lines, including the HMT-3522-T4 cells and MDA-MD-231 cells, were cultured within the 3-dimensional basement membrane (3-D BM) assay. To accomplish this the cells were trypsinized from routine cell culture, washed once with DMEM/F12 medium, treated with soybean trypsin inhibitor, washed again with DMEM/F12 medium and resuspended in growth medium [DMEM/F12, supplemented with insulin 250 ng/ml (Boehringer Mannheim, Indianapolis, Ind.), 10 μg/ml transferrin (Sigma), 2.6 ng/ml sodium selenite (Collaborative Research), 1.4×10^−6 M hydrocortisone (Collaborative Research), 1×10^−10 M β-estradiol (Sigma),5 μg/ml prolactin (Sigma)]. The cells were counted and 100,000 cells were resuspended in 0.3-0.5 mls of growth factor-reduced Matrigel (Collaborative Research). This mixture was placed into a 1.5 cm diameter cell culture well, and incubated at 37 degrees Celsius for 30 minutes to induce gelling of the Matrigel. Subsequently, the gelled cell-BM protein mixture was overlayed with growth medium with or without the addition of protease inhibitors or control substances. The cells were cultured at 37 degrees Celsius in a cell culture incubator at 5% carbon dioxide. The growth medium and additives were changed every two days.
The assay was allowed to proceed from 6 to 10 days. Over this time, the cells grew from single cells within the gel to form multicellular aggregates with variable characteristics, from polarized and growth arrested (normal phenotype), to disorganized and growing (tumorigenic phenotype), to invasive. […]

[1] = tested on: α-dystroglycan shedding, SCg6 mammary carcinoma cells; test: Dystroglycan proteolysis assay: immunoblot detection of α-dystroglycan shed from the cell surface into culture medium; assay type: cell-based
Description: To ask if shedding was induced by the proteolysis, we treated the cells with a general matrix metaloproteinase (MW) inhibitor, GM6001, to see if α-dystroglycan shedding was inhibited.
Cleavage of a-dystroglycan was detected using cultured cells that cleave and shed dystroglycan from the cell surface. Dystroglycan cleavage was assayed for by immunoblotting to detect the presence of dystroglycan fragments in the medium of cultured cells. Mammary carcinoma cell lines SCg6 or TCL1 were cultured in 10 milliliters (ml) DMEM/F12 medium supplemented with 2% fetal calf serum, 5 μg/ml insulin (Sigma Chemical Co., St. Louis, Mo.), and 50 μg/ml Gentamycin (UCSF Cell Culture Facility). The cells were allowed to grow to 80% confluence in 10 centimeter (cm) plastic tissue culture dishes. The cells were rinsed two times with phosphate-buffered saline (PBS) and the medium was then changed to 10 mls DMEM/F12 medium supplemented with insulin, and Gentamycin, but without added serum. The cells were incubated in this serum-free medium for 48 hrs, then this conditioned medium was harvested and filtered through 0.4 µm filters to remove cells or cell debris. The harvested medium was concentrated from 10 ml to approximately 1.0 ml using a CENTRIPREP-30 concentrator (Amicon, Beverly, Mass.). The concentrated supernatant was added to 1/10th volume of 10× sample buffer (50% glycerol, 100 mM acetic acid, 10% SDS (w/v), 12.5% (v/v) β-mercaptoethanol, bromophenol blue) and heated at 70 degrees Celsius for 15 minutes prior to loading on SDS-polyacrylamide (SDS-PAGE) gels, and subjected to immunoblot analysis. Assays of dystroglycan cleavage and shedding in the presence of the metaloproteinase inhibitor GM6001 (AMS Scientific, Pleasant Hills, Calif.) were performed in the same manner, with varying concentrations of GM6001, or the control C1004 (AMS Scientific), diluted into the serum-free culture medium at the beginning of the 48 hour incubation. To compare treatments, equivalent volumes of conditioned medium from each treated cell population were loaded onto the gel to determine the relative quantities of dystroglycan shed into the medium.
After separation on an 8% SDS-PAGE gels, the proteins were electrophoretically transferred to Immobilon-P membranes (Millipore Corp., Bedford, Mass.) using methanol transfer buffer (20 mM Tris pH 8.3, 150 mM glycine, 0.5% SDS, 20% methanol). Following the transfer, the membranes were blocked for two hours in low salt TBST buffer (20 mM Tris-HCI, pH 8.0, 100 mM NaCl, 1.0% Tween-20 detergent) plus 5% non-fat dried milk (Lucerne). After blocking, the membranes were incubated for 45 minutes with the IIH6 monoclonal antibody (primary antibody against α-dystroglycan, obtained from Dr. Kevin Campbell, University of Iowa) diluted in low salt TBST plus 5% dried milk. The primary antibody was diluted 1:20 from a concentrated (8×) stock of hybridoma supernatant. After incubation with the primary antibody, the membranes were washed with low-salt TBST and incubated 45 minutes with an horse radish peroxidase (HRP) conjugated secondary antibody (anti-IgM Product # A 8786 from Sigma).

MMPs = settings: MPs other than some ADAMs; cited from earlier work

CNC(=O)[C@H](Cc1c[nH]c2ccccc12)NC(=O)[C@@H](CC(=O)NO)CC(C)C [GM6001, N-[2(R)-2(hydroxamidocarbonylmethyl)-4-methylpentanoyl]-L-tryptophane methylamide]
effect on tumor cell growth characteristics in the 3D-BM assay (HMT-3522-T4 (T4) cells; 2 μM, FIG. 3B): No effect | tumorigenic phenotype in the 3D-BM assay (HMT-3522-T4 (T4) cells; 40 μM, FIGS. 3C, 3D): Complete “reversion” of the tumor phenotype; also recorded: caused growth arrest, polarization and reversion to a non-tumorigenic phenotype | cell growth after removal of the inhibitor (HMT-3522-T4 (T4) cells; removal for 7 days following a ten-day incubation with the inhibitor): did not permit a re-initiation of cell growth | effect on tumor cell growth characteristics in the 3D-BM assay (MDA-MD-231 cells; 2 μM, FIG. 3F): No effect | growth and invasion of MDA-MD-231 cells in the 3D-BM assay (MDA-MD-231 cells; 40 μM, FIGS. 3G, 3H): potently inhibited the growth and invasion | concentration required to reduce growth (and invasion) of MDA-MD-231 cells (MDA-MD-231 cells; 6 to 10 days in Matrigel): over 20 μM | shedding of α-dystroglycan (proteolysed form) into the culture supernatant ([1]; 40 μM, FIG. 1B): blocked; also recorded: no longer detected | shedding of α-dystroglycan in the supernatant across a concentration series ([1]; five different concentrations, FIG. 1C): differentially blocked | Ki ([1]; titration of GM6001, FIG. 1C, 48 h serum-free medium, read-out: Ki (pKi) for inhibition of α-dystroglycan shedding (converted)): ~10 µM | concentration giving nearly complete inhibition of α-dystroglycan shedding ([1]; titration, FIG. 1C): over 25 μM | GM6001 concentrations that generally inhibit other MP's (MMPs): below 30 μM

TAPI
reversion of the T4 tumor cell line in the 3D-BM assay (HMT-3522-T4 (T4) cells; 10 μM): revert
